Data taken from publication PMC9182383, “Rational Design of Plant Hairpin-like Peptide EcAMP1: Structural–Functional Correlations to Reveal Antibacterial and Antifungal Activity” (Molecules, 2022).
Like-named read-outs stand apart in the source and are kept apart here. Positions of bridges follow the written chain, without caps; N, C: chain ends. Residues, ends and D or L forms follow the SMILES beside them.

Tests used:
[1] = tested on: Fusarium oxysporum; conditions: 48 h
[2] = tested on: F. graminearum
[3] = tested on: F. solani; conditions: 48 h
[4] = tested on: E. coli; experiment: Antibacterial microdilution assay; type: cell-based, Escherichia coli; conditions: CA-MHB, 37 °C 48 h; for Antibacterial activity against E. coli: concentrations up to 80 µM
[5] = tested on: P. aeruginosa; experiment: Antibacterial microdilution assay; type: cell-based; conditions: CA-MHB, 37 °C 48 h; for Antibacterial activity against P. aeruginosa: concentrations up to 80 µM
[6] = tested on: Aspergillus niger; conditions: 48 h
[7] = tested on: Bipolaris sorokiniana; conditions: 48 h
[8] = tested on: Alternaria alternata; conditions: 48 h
[9] = tested on: C. albicans; conditions: 48 h
[10] = tested on: S. aureus
[11] = tested on: filamentous fungi and oomycetes; conditions: cited from earlier work
[12] = read-out: Antifungal activity IC50, F. graminearum, Table 1, native vs truncated forms, potato–dextrose broth, 10^4–10^5 conidia per mL, 25 °C 48 h, 50% inhibition of spore germination, light microscopy, three replicates
[13] = Table S1, microdilution, YPDB, OD600, growth control +, negative control -

| Compound | IC50 [1] | IC50 ([2]; 48 h) | IC50 [3] | Antibacterial activity against E. coli [4] | Antibacterial activity against P. aeruginosa [5] | IC50 [2, 12] | IC50 [6] | IC50 [7] | IC50 [8] | Growth of C. albicans at 1.25 µM peptide [9, 13] | also measured |
| --- | --- | --- | --- | --- | --- | --- | --- | --- | --- | --- | --- |
| CSCC[C@@H]1NC(=O)[C@@H]2CSSC[C@H](NC(=O)[C@H](CCC(=O)O)NC(=O)[C@H](CCC(N)=O)NC(=O)[C@H](C(C)C)NC(=O)[C@H](CCCNC(=N)N)NC(=O)[C@H](Cc3c[nH]c4ccccc34)NC(=O)[C@@H]3CCCN3C(=O)[C@H](CCC(=O)O)NC(=O)[C@H](CC(=O)O)NC(=O)[C@H](CCC(=O)O)NC(=O)[C@H](Cc3c[nH]cn3)NC(=O)[C@H](CCCNC(=N)N)NC(=O)[C@H](CCCNC(=N)N)NC1=O)C(=O)N[C@@H](C(C)C)C(=O)N[C@@H](CO)C(=O)N[C@@H](CCC(N)=O)C(=O)N[C@H](C(=O)N[C@@H](CCCNC(=N)N)C(=O)N[C@@H](CCCNC(=N)N)C(=O)O)CSSC[C@H](NC(=O)[C@H](CO)NC(=O)CNC(=O)[C@H](CCCNC(=N)N)NC(=O)CNC(=O)[C@H](CO)NC(=O)CN)C(=O)N[C@@H](CCCNC(=N)N)C(=O)N[C@@H](CO)C(=O)N[C@@H](CCC(N)=O)C(=O)N2 [EcAMP1-X4] (H-GSGRGSCRSQCMRRHEDEPWRVQECVSQCRR-OH; disulfide 7-29, 11-25; N-terminus and C-terminus assumed) | 15.8 ± 1.6 µM | 8.5 ± 1.2 µM | 7.8 ± 0.7 µM | – | – | – | – | – | – | – | – |
| CSCC[C@@H]1NC(=O)[C@@H]2CSSC[C@H](NC(=O)[C@H](CCC(=O)O)NC(=O)[C@H](CCC(N)=O)NC(=O)[C@H](C(C)C)NC(=O)[C@H](CCCNC(=N)N)NC(=O)[C@H](Cc3c[nH]c4ccccc34)NC(=O)[C@@H]3CCCN3C(=O)[C@H](CCC(=O)O)NC(=O)[C@H](CC(=O)O)NC(=O)[C@H](CCC(=O)O)NC(=O)[C@H](Cc3c[nH]cn3)NC(=O)[C@H](CCCNC(=N)N)NC(=O)[C@H](CCCNC(=N)N)NC1=O)C(=O)N[C@@H](C(C)C)C(=O)N[C@@H](CO)C(=O)N[C@@H](CCC(N)=O)C(=O)N[C@H](C(=O)N[C@@H](CCCNC(=N)N)C(=O)N[C@@H](CCCNC(=N)N)C(=O)N[C@@H](CCCNC(=N)N)C(=O)N[C@@H](CCCNC(=N)N)C(=O)NCC(=O)NCC(=O)NCC(=O)N[C@@H](CC(=O)O)C(=O)O)CSSC[C@H](NC(=O)[C@H](CO)NC(=O)CNC(=O)[C@H](CCCNC(=N)N)NC(=O)CNC(=O)[C@H](CO)NC(=O)CN)C(=O)N[C@@H](CCCNC(=N)N)C(=O)N[C@@H](CO)C(=O)N[C@@H](CCC(N)=O)C(=O)N2 [EcAMP1-WT] (H-GSGRGSCRSQCMRRHEDEPWRVQECVSQCRRRRGGGD-OH; disulfide 7-29, 11-25; N-terminus and C-terminus assumed) | – | – | – | inactive | inactive | 6.8 ± 1 µM | > 32 µM | 25.7 ± 3.6 µM | 18.4 ± 2.7 µM | MIC99 | IC50 [9]: 0.625 µM; Growth of C. albicans at 0.625 µM peptide ([9]; Table S1, 0.625 µM, microdilution, YPDB, OD600, growth control +, negative control -): MIC50; MIC99, almost complete suppression of C. albicans ([9]; microdilution, YPDB, range 0.625–80 µM, OD600): 1.25 µM; IC50 ([10]; 48 h): 5 µM; Growth of S. aureus at 5 µM peptide ([10]; Table S2, 5 µM, microdilution, CA-MHB, 37 °C 48 h, OD600, growth control +, negative control -): MIC50; Growth of S. aureus at 10 µM peptide ([10]; Table S2, 10 µM, microdilution, CA-MHB, 37 °C 48 h, OD600, growth control +, negative control -): MIC95; Growth of S. aureus at 20 µM peptide ([10]; Table S2, 20 µM, microdilution, CA-MHB, 37 °C 48 h, OD600, growth control +, negative control -): MIC99; Number of microbes for which inhibition activity was registered [11]: 11; IC50 ([11]; read-out: IC50 against filamentous fungi and oomycetes): 4.5 to 18.2 µM |
| CSCC[C@@H]1NC(=O)[C@@H]2CSSC[C@H](NC(=O)[C@H](CCC(=O)O)NC(=O)[C@H](CCC(N)=O)NC(=O)[C@H](C(C)C)NC(=O)[C@H](CCCNC(=N)N)NC(=O)[C@H](C)NC(=O)[C@@H]3CCCN3C(=O)[C@H](CCC(=O)O)NC(=O)[C@H](CC(=O)O)NC(=O)[C@H](CCC(=O)O)NC(=O)[C@H](Cc3c[nH]cn3)NC(=O)[C@H](CCCNC(=N)N)NC(=O)[C@H](CCCNC(=N)N)NC1=O)C(=O)N[C@@H](C(C)C)C(=O)N[C@@H](CO)C(=O)N[C@@H](CCC(N)=O)C(=O)N[C@H](C(=O)N[C@@H](CCCNC(=N)N)C(=O)N[C@@H](CCCNC(=N)N)C(=O)N[C@@H](CCCNC(=N)N)C(=O)N[C@@H](CCCNC(=N)N)C(=O)NCC(=O)NCC(=O)NCC(=O)N[C@@H](CC(=O)O)C(=O)O)CSSC[C@H](NC(=O)[C@H](CO)NC(=O)CNC(=O)[C@H](CCCNC(=N)N)NC(=O)CNC(=O)[C@H](CO)NC(=O)CN)C(=O)N[C@@H](CCCNC(=N)N)C(=O)N[C@@H](CO)C(=O)N[C@@H](CCC(N)=O)C(=O)N2 [EcAMP1-X3] (H-GSGRGSCRSQCMRRHEDEPARVQECVSQCRRRRGGGD-OH; disulfide 7-29, 11-25; N-terminus and C-terminus assumed) | 15 ± 2.1 µM | 9.9 ± 1.9 µM | 8.6 ± 1.5 µM | – | – | – | – | – | – | – | – |
| CSCC[C@@H]1NC(=O)[C@@H]2CSSC[C@H](NC(=O)[C@H](CCC(=O)O)NC(=O)[C@H](CCC(N)=O)NC(=O)[C@H](C(C)C)NC(=O)[C@H](CCCNC(=N)N)NC(=O)[C@H](Cc3c[nH]c4ccccc34)NC(=O)[C@@H]3CCCN3C(=O)[C@H](CCC(=O)O)NC(=O)[C@H](CC(=O)O)NC(=O)[C@H](CCC(=O)O)NC(=O)[C@H](Cc3c[nH]cn3)NC(=O)[C@H](CCCNC(=N)N)NC(=O)[C@H](CCCNC(=N)N)NC1=O)C(=O)N[C@@H](C(C)C)C(=O)N[C@@H](CO)C(=O)N[C@@H](CCC(N)=O)C(=O)N[C@H](C(=O)O)CSSC[C@H](N)C(=O)N[C@@H](CCCNC(=N)N)C(=O)N[C@@H](CO)C(=O)N[C@@H](CCC(N)=O)C(=O)N2 [EcAMP1-X1] (H-CRSQCMRRHEDEPWRVQECVSQC-OH; disulfide 1-23, 5-19 (inferred); N-terminus assumed) | 15.4 ± 1.1 µM | – | 6.9 ± 0.7 µM | absolutely inactive | absolutely inactive | 9 ± 1.4 µM | > 32 µM | > 32 µM | 21.1 ± 2.4 µM | – | Activity against C. albicans ([9]; microdilution, YPDB, concentrations up to 80 µM): absolutely inactive; Antibacterial activity against S. aureus ([10]; microdilution, CA-MHB, 37 °C 48 h, concentrations up to 80 µM): absolutely inactive |
| LL37: linear α-helical antimicrobial peptide cathelicidin, positive control (LLGDFFRKSKEKIGKEFKRIVQRIKDFLRNLVPRTES; Antibacterial peptide LL-37; UniProt P49913 134-170, looked up) [reference compound] | – | – | – | – | – | – | – | – | – | MIC99 | Growth of E. coli at 1.25 µM peptide ([4]; Table S3, 1.25 µM, OD600, growth control +, negative control -): MIC99; Growth of P. aeruginosa at 1.25 µM peptide ([5]; Table S4, 1.25 µM, OD600, growth control +, negative control -): MIC99; Growth of S. aureus at 0.625 µM peptide ([10]; Table S2, 0.625 µM, microdilution, CA-MHB, 37 °C 48 h, OD600, growth control +, negative control -): MIC50; Growth of S. aureus at 1.25 µM peptide ([10]; Table S2, 1.25 µM, microdilution, CA-MHB, 37 °C 48 h, OD600, growth control +, negative control -): MIC99 |
| CSCC[C@@H]1NC(=O)[C@@H](N)CSSC[C@@H](C(=O)O)NC(=O)[C@H](CCC(=O)O)NC(=O)[C@H](CCC(N)=O)NC(=O)[C@H](C(C)C)NC(=O)[C@H](CCCNC(=N)N)NC(=O)[C@H](Cc2c[nH]c3ccccc23)NC(=O)[C@@H]2CCCN2C(=O)[C@H](CCC(=O)O)NC(=O)[C@H](CC(=O)O)NC(=O)[C@H](CCC(=O)O)NC(=O)[C@H](Cc2c[nH]cn2)NC(=O)[C@H](CCCNC(=N)N)NC(=O)[C@H](CCCNC(=N)N)NC1=O [EcAMP1-X2] (H-CMRRHEDEPWRVQEC-OH; disulfide 1-15) | 23.2 ± 2.6 µM | – | 11 ± 1.9 µM | – | – | 18.1 ± 2.1 µM | > 32 µM | > 32 µM | > 32 µM | – | – |
